Measured values from US20220162163A1, “ALANINE-BASED MODULATORS OF PROTEOLYSIS AND ASSOCIATED METHODS OF USE” (Arvinas Operations, Inc., priority 2015, published 2022).
Values belong to the compound of their own block, whether it stands above or below them.

Experiments:
Assay type in all cases: cell-based
[1] = molecular target: T1, EZH2 (Homo sapiens, UniProt Q15910); assay: Cellular assay of EZH2 degradation (MDA-MB-231 cells, Western blot); conditions: EZH2, MDA-MB-231 cells, PROTAC concentration 3 μM, relative to DMSO control
T1 construct: endogenous in cells; host or cells: MDA-MB-231
T1 sequence (Q15910 whole entry): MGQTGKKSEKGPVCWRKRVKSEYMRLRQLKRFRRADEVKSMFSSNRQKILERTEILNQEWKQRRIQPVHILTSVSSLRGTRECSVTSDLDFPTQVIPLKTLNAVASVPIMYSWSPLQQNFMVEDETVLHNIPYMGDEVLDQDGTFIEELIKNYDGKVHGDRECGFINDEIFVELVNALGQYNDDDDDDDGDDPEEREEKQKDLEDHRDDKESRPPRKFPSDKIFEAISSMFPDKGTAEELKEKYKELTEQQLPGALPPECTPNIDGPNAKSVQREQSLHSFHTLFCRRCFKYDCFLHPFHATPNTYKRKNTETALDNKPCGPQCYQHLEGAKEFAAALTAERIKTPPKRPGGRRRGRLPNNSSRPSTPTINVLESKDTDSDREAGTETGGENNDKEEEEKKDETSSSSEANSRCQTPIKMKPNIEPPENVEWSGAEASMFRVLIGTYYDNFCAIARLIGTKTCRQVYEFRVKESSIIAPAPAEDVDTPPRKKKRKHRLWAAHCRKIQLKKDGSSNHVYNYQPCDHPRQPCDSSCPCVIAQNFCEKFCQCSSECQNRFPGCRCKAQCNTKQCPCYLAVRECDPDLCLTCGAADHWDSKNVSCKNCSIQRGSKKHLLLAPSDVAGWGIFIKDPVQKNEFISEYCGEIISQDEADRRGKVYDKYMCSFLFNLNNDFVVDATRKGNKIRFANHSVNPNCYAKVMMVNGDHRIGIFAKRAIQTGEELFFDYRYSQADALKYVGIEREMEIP
T1 sequence (O75530 whole entry partner): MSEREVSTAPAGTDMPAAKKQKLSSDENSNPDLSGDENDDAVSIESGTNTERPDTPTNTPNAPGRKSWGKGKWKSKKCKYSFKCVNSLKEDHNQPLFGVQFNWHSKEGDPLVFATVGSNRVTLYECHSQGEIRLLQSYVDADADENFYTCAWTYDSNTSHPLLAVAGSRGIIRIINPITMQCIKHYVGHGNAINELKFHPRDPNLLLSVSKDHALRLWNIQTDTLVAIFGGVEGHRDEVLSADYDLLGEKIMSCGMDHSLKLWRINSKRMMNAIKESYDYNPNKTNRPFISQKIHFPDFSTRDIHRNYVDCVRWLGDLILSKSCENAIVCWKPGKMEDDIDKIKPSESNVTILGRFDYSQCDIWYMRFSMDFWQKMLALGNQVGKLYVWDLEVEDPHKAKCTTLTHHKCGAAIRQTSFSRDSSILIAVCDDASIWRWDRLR
T1 sequence (Q15022 whole entry partner): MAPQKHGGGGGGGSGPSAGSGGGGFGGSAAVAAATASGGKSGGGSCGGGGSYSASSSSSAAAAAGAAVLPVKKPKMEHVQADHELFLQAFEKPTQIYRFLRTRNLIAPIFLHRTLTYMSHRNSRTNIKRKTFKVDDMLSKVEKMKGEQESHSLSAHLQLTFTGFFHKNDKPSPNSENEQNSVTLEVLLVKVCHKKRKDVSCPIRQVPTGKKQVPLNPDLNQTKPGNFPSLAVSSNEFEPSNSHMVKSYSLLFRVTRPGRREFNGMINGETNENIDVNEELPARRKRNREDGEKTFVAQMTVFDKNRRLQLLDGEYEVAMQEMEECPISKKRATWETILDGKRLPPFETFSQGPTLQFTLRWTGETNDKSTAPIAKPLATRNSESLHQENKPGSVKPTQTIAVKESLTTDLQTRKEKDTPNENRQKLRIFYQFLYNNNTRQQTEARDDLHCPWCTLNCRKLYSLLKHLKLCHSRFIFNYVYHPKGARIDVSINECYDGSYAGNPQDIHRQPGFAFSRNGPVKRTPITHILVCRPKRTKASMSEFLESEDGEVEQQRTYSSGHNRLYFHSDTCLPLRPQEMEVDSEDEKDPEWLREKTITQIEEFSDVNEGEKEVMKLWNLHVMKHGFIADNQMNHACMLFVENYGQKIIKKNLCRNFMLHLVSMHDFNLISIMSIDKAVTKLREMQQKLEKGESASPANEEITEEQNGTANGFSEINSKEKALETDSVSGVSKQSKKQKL
Experimental: Protocol of the Cellular Assay of EZH2 Degradation (MDA-MB-231 Cells, Western Blot).
MDA-MB-231 cells were plated at 10,000 cells per well in 6 well plates, 2 ml/well in DMEM+10% Fetal Bovine Serum. Cells were allowed to grow for 3 days at 37 degrees C. Cells were dosed with PROTACs. On day 3 and day 7 after dosing, cells were harvested and lysed with RIPA buffer. Lysed cells were transferred to eppendorf tubes, and each lysate was sonicated and then spinned in microfuge for 15 minutes at 20,000×g at 4 degrees C. Supernatant was transferred to a clean tube, and protein concentration was quantitated using the Pierce BCA Protein Assay kit (cat #23225). Lysate concentrations were adjusted to 1 microgram/microliter in lysis buffer. For Western blot samples were loaded in 4×LDS buffer, 10 microliters/lane, onto Noxex NuPage 4-12% Bis-Tris Midi Gel […]×26 well.
Gels were run on BioRad power source Model 1000/500, at 200V constant voltage for 1 hour. Gels were then transferred onto a nitrocellulose membrane using an iBlot2 transfer apparatus from Life Technologies. Transfers were done on Program 0 and blocked for 1 hour in TBS-T (Tris Buffered Saline with 0.05% Tween 20)+5% BSA (Bovine Serum Albumin). Block solution was decanted, and the primary antibody solutions were added (EZH2-Cell Signaling #5246S; tri-methyl-Histone H3-Cell Signaling #9733S; Histone H3-Cell Signaling #4499; all diluted 1:1000 in 20 ml TBS-T+5% BSA). The preparation was placed in cold room (4 degrees C.) overnight on rocker platform, after which the antibody solution was decanted. The preparation was washed 3 times in TBS-T for 10 minutes each, and anti-rabbit secondary antibody (Cell Signaling #7074S), diluted 1:20,000 in TBS-T+5% BSA, was added. This was followed by incubating for 1 hour at room temperature with gentle rocking and washing 3 times in TBS-T. To develop blots SuperSignal™ West Femto Maximum Sensitivity Substrate (Life Technologies Catalog number: 34095) solution was applied for 5 minutes. Blots were imaged on BioRad ChemiDoc Imager using the “Chemi Hi Sensitivity” protocol. Bands were quantitated using Image Lab software v 5.2.1.

[2] = molecular target: T2, JNK1 (Homo sapiens, UniProt P45983); assay: Cellular assay of JNK degradation (A549 cells, Western blot), JNK1; conditions: for JNK1 degradation range: PROTAC concentration 1 μM, relative to DMSO control; for DC50: read-out: JNK1 DC50 range
T2 construct: A549 lung adenocarcinoma cells were purchased from ATCC and cultured in RPMI1640 Medium; endogenous in cells; host or cells: A549
T2 sequence (P45983 whole entry): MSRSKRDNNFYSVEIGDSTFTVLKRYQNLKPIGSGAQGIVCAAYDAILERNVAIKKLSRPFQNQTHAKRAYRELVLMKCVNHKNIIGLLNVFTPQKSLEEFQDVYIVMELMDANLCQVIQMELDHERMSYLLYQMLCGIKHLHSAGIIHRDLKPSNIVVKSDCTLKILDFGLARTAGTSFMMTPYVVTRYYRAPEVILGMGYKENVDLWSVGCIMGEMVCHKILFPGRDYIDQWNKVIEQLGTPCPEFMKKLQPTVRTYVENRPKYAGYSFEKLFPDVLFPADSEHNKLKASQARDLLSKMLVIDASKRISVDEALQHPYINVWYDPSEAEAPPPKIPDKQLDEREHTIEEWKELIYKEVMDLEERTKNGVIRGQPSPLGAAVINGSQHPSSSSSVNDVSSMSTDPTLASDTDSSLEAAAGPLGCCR
Experimental: (§1) Protocol of the cellular assay of JNK degradation (A549 cells, Western blot). A549 lung adenocarcinoma cells were purchased from ATCC and cultured in RPMI1640 Medium (Gibco) supplemented with 10% Fetal Bovine Serum (Gibco). […] Cells were stimulated with PMA (Phorbol 12-myristate 13-acetate, Sigma) for 1 hour before harvesting. Cells were lysed in Cell Signaling lysis buffer supplemented with protease inhibitors (Thermo). The lysates were centrifuged at 20,000×g for 15 minutes to clarify, and protein concentration was determined by BCA (Pierce). Equal amounts of protein (5 micrograms) were separated by SDS-PAGE and transferred onto nitrocellulose membranes. The mermbranes were probed with antibodies against SAPK/JNK (Cell Signaling #9252), phospho-c-Jun (Cell Signaling #3270), MDM2 (Sigma M4308) and p53 (Cell Signaling #2527). HRP-conjugated anti-rabbit and anti-mouse secondary antibodies were from Cell Signaling. The bands were visualized with SuperSignal West Femto Substrate (Thermo). Quantitation was done using Image Lab Software v5.2.1.

[3] = molecular target: T3, JNK2 (Homo sapiens, UniProt P45984); assay: Cellular assay of JNK degradation (A549 cells, Western blot), JNK2; conditions: for JNK2 degradation range: PROTAC concentration 1 μM, relative to DMSO control; for DC50: read-out: JNK2 DC50 range
T3 construct: A549 lung adenocarcinoma cells were purchased from ATCC and cultured in RPMI1640 Medium; endogenous in cells; host or cells: A549
T3 sequence (P45984 whole entry): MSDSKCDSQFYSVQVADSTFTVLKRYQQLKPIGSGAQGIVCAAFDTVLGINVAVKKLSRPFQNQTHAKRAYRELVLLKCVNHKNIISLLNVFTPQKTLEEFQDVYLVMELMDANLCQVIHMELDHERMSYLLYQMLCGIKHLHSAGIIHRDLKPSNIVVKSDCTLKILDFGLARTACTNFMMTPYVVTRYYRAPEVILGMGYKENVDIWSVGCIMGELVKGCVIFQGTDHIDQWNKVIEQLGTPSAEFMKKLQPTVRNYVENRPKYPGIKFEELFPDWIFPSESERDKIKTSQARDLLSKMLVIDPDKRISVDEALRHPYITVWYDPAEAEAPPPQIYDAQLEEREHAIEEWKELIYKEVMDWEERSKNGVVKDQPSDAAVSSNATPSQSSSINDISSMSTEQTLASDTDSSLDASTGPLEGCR
Experimental: as §1

Structure (SMILES): CN[C@@H](C)C(=O)N[C@H](C(=O)N1CCC[C@H]1c1nc(-c2ccc(OCCOCCOCCOCCOC3CCC(Nc4nccc(-c5cnn(Cc6ccccc6)c5N(C)C)n4)CC3)c3ccccc23)cs1)C1CCCCC1 (stereo partly drawn) [Example 15, (2S)—N-[(1S)-1-cyclohexyl-2-oxo-2-[(2S)-2-[4-[4-([1-[(1r,4r)-4-([4-[1-benzyl-5-(dimethylamino)-1H-pyrazol-4-yl]pyrimidin-2-yl]amino)cyclohexyl]-1,4,7,10-tetraoxadodecan-12-yl]oxy)naphthalen-1-yl]-1,3-thiazol-2-yl]pyrrolidin-1-yl]ethyl]-2-(methylamino)propanamide]
JNK1 degradation range [2]: A (degradation more than 60%) | DC50 [2]: 100 to 1000 nM | JNK2 degradation range [3]: B (degradation between 30% and 60%)

Structure (SMILES): CN[C@@H](C)C(=O)N[C@H](C(=O)N1CC[C@@H]2CCN(CCc3ccc(OCCOCCOCCOCCOC4CCC(Nc5nccc(-c6cnn(Cc7ccccc7)c6N(C)C)n5)CC4)cc3)C[C@@H]21)C1CCCCC1 (mixture of isomers) [Example 19, (2S)—N-[(1S)-1-cyclohexyl-2-oxo-2-(6-[2-[4-([1-[(1r,4r)-4-([4-[1-benzyl-5-(dimethylamino)-1H-pyrazol-4-yl]pyrimidin-2-yl]amino)cyclohexyl]-1,4,7,10-tetraoxadodecan-12-yl]oxy)phenyl]ethyl]-octahydro-1H-pyrrolo[2,3-c]pyridin-1-yl)ethyl]-2-(methylamino)propanamide]
JNK1 degradation range [2]: A (degradation more than 60%) | DC50 [2]: 1 to 100 nM | JNK2 degradation range [3]: A (degradation more than 60%) | DC50 [3]: 100 to 1000 nM

Structure (SMILES): CN[C@@H](C)C(=O)N[C@H](C(=O)N1CCC[C@H]1c1nc(-c2ccc(OCCOCCO[C@H]3CC[C@H](Nc4nccc(-c5cnn(Cc6ccccc6)c5N(C)C)n4)CC3)c3ccccc23)cs1)C1CCCCC1 [Example 13, (2S)—N-[(1S)-1-cyclohexyl-2-oxo-2-[(2S)-2-(4-[4-[2-(2-[[(1r,4r)-4-([4-[1-benzyl-5-(dimethylamino)-1H-pyrazol-4-yl]pyrimidin-2-yl]amino)cyclohexyl]oxy]ethoxy)ethoxy]naphthalen-1-yl]-1,3-thiazol-2-yl)pyrrolidin-1-yl]ethyl]-2-(methylamino)propanamide]
JNK1 degradation range [2]: A (degradation more than 60%) | DC50 [2]: 1 to 100 nM | JNK2 degradation range [3]: A (degradation more than 60%) | DC50 [3]: 100 to 1000 nM

Structure (SMILES): CN[C@@H](C)C(=O)N[C@H](C(=O)N1CCC[C@H]1c1nc(-c2ccc(OCCOCCOCCOC3CCC(Nc4nccc(-c5cnn(Cc6ccccc6)c5N(C)C)n4)CC3)c3ccccc23)cs1)C1CCCCC1 (stereo partly drawn) [Example 14, (S)—N—((S)-2-((S)-2-(4-(4-(2-(2-(2-((1r,4r)-4-(4-(1-benzyl-5-(dimethylamino)-1H-pyrazol-4-yl)pyrimidin-2-ylamino)cyclohexyloxy)ethoxy)ethoxy)ethoxy)naphthalen-1-yl)thiazol-2-yl)pyrrolidin-1-yl)-1-cyclohexyl-2-oxoethyl)-2-(methylamino)propanamide]
JNK1 degradation range [2]: A (degradation more than 60%) | DC50 [2]: 1 to 100 nM | JNK2 degradation range [3]: B (degradation between 30% and 60%)

Second part, the compound after the results:

Target protein degradation range [1]: B (degradation between 30% and 60%)
Structure (SMILES): CCN(c1cc(-c2ccc(OCCOCCOCCOc3ccc(-c4csc([C@@H]5CCCN5C(=O)[C@@H](NC(=O)[C@H](C)NC)C5CCCCC5)n4)c4ccccc34)cc2)cc(C(=O)NCc2c(C)cc(C)[nH]c2=O)c1C)C1CCOCC1 [Example 10, 5-[4-[2-(2-[2-[(4-[2-[(2S)-1-[(2S)-2-cyclohexyl-2-[(2S)-2-(methylamino)propanamido]acetyl]pyrrolidin-2-yl]-1,3-thiazol-4-yl]naphthalen-1-yl)oxy]ethoxy]ethoxy)ethoxy]phenyl]-N-[(4,6-dimethyl-2-oxo-1,2-dihydropyridin-3-yl)methyl]-3-[ethyl(oxan-4-yl)amino]-2-methylbenzamide]

Target protein degradation range [1]: B (degradation between 30% and 60%)
Structure (SMILES): CCN(c1cc(-c2ccc(OCCOCCOCCOCCOCCOc3ccc(-c4csc([C@@H]5CCCN5C(=O)[C@@H](NC(=O)[C@H](C)NC)C5CCCCC5)n4)c4ccccc34)cc2)cc(C(=O)NCc2c(C)cc(C)[nH]c2=O)c1C)C1CCOCC1 [Example 11, 5-(4-[[1-(4-[2-[(2S)-1-[(2S)-2-cyclohexyl-2-[(2S)-2-(methylamino)propanamido]acetyl]pyrrolidin-2-yl]-1,3-thiazol-4-yl]naphthalen-1-yl)-1,4,7,10,13-pentaoxapentadecan-15-yl]oxy]phenyl)-N-[(4,6-dimethyl-2-oxo-1,2-dihydropyridin-3-yl)methyl]-3-[ethyl(oxan-4-yl)amino]-2-methylbenzamide]

Target protein degradation range [1]: C (degradation between 0% and 30%)
Structure (SMILES): CCN(c1cc(-c2ccc(OCCOCCOCCOCCOCCOc3ccc(CCN4CC[C@H]5CCN(C(=O)[C@@H](NC(=O)[C@H](C)NC)C6CCCCC6)[C@H]5C4)cc3)cc2)cc(C(=O)NCc2c(C)cc(C)[nH]c2=O)c1C)C1CCOCC1 (racemic) [Example 8, 5-(4-[[1-(4-[2-[1-[(2S)-2-cyclohexyl-2-[(2S)-2-(methylamino)propanamido]acetyl]-octahydro-1H-pyrrolo[2,3-c]pyridin-6-yl]ethyl]phenyl)-1,4,7,10,13-pentaoxapentadecan-15-yl]oxy]phenyl)-N-[(4,6-dimethyl-2-oxo-1,2-dihydropyridin-3-yl)methyl]-3-[ethyl(oxan-4-yl)amino]-2-methylbenzamide]

Target protein degradation range [1]: C (degradation between 0% and 30%)
Structure (SMILES): CCN(c1cc(-c2ccc(OCCOCCOCCOc3ccc(CCN4CC[C@H]5CCN(C(=O)[C@@H](NC(=O)[C@H](C)NC)C6CCCCC6)[C@H]5C4)cc3)cc2)cc(C(=O)NCc2c(C)cc(C)[nH]c2=O)c1C)C1CCOCC1 (racemic) [Example 9, 5-[4-(2-[2-[2-(4-[2-[1-[(2S)-2-cyclohexyl-2-[(2S)-2-(methylamino)propanamido]acetyl]-octahydro-1H-pyrrolo[2,3-c]pyridin-6-yl]ethyl]phenoxy)ethoxy]ethoxy]ethoxy)phenyl]-N-[(4,6-dimethyl-2-oxo-1,2-dihydropyridin-3-yl)methyl]-3-[ethyl(oxan-4-yl)amino]-2-methylbenzamide]
